Results: patent US11780812B2, “Oxopyridine derivatives useful as aminocarboxymuconate semialdehyde decarboxylase (ACMSD) inhibitors” (OrsoBio, Inc., priority 2016, dated 2023)

Target: human ACMSD (Homo sapiens (Human), UniProt Q8TDX5)
Test: Human ACMSD-1 inhibitor assay (coupled 3-HAO/ACMSD, absorbance at 360 nm)
Conditions: read-out: hACMSD IC50; human ACMSD 6 μg/ml, 50 mM MES pH 6.0, 28° C., four-parameter dose-response fit
Protocol: A solution of 7.8 μg/ml 3-hydroxyanthranilate 3,4-dioxygenase (3-HAO) with protein dilution buffer (50 mM 4-Morpholineethanesulfonic acid “MES” pH 6.0) and a solution of 6 μg/ml Human 2-amino-3-carboxymuconate-6-semialdehyde decarboxylase (human ACMSD) with protein dilution buffer (50 mM MES pH 6.0) were prepared separately. A serial 2-fold dilution of test compounds, from 512 nM until 0.5 nM were prepared.
The plate was placed into a SpectraMax Plus 384 Microplate Reader, Molecular Devices with the temperature set to 28° C. The absorbance at 360 nm for 10 min with 10 seconds interval was monitored and recorded.
To a 96-well plate was added 50 μl of 6 μg/ml human ACMSD with series concentrations of the test compound. The absorbance was recorded at 360 nm for 10 min with 10 seconds interval. The data was analyzed in GraphPad Prism 6. A four-parameter dose-response curve was fitted. “Hill Slope” was constrained between −0.5 and −3, and such constrains was indicated when applied.

Chain of human ACMSD (Q8TDX5 whole entry): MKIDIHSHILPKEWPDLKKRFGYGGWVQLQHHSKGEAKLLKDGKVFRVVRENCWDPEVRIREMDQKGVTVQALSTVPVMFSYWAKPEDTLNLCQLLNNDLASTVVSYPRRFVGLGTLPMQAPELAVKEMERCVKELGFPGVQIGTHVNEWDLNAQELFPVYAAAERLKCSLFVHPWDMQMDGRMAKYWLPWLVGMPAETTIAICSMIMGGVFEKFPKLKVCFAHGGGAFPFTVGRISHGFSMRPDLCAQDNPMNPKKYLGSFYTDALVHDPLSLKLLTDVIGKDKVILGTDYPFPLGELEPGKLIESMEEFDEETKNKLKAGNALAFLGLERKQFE

N#Cc1c(C(F)(F)F)cc(=O)[nH]c1SCCC(=O)O [Ex. 2, 3-(3-cyano-6-oxo-4-(trifluoromethyl)-1,6-dihydropyridin-2-ylthio)propanoic acid]
IC50: 752 nM

N#Cc1c(-c2ccccc2)cc(=O)[nH]c1SCc1cncc(C(=O)O)c1 [Ex. 34, 5-(((3-cyano-6-oxo-4-phenyl-1,6-dihydropyridin-2-yl)thio)methyl)nicotinic acid]
IC50: 3 nM

N#Cc1c(C(F)(F)F)cc(=O)[nH]c1SCc1cc(F)cc(C(=O)O)c1 [Ex. 20, 3-(((3-cyano-6-oxo-4-(trifluoromethyl)-1,6-dihydropyridin-2-yl)thio)methyl)-5-fluorobenzoic acid]
IC50: 350 nM

N#Cc1c(SCc2nnn[nH]2)[nH]c(=O)c(Cl)c1C(F)(F)F [Ex. 40, 2-((1H-tetrazol-5-yl)methylthio)-5-chloro-6-oxo-4-(trifluoromethyl)-1,6-dihydropyridine-3-carbonitrile]
IC50: 4 nM

CCCc1cc(=O)[nH]c(SCC(=O)O)c1C#N [Ex. 6, 2-((3-cyano-6-oxo-4-propyl-1,6-dihydropyridin-2-yl)thio)acetic acid]
IC50: 3050 nM

Cc1cc(=O)[nH]c(SCc2cccc(C(=O)O)c2)c1C#N [Ex. 56, 3-(((3-cyano-4-methyl-6-oxo-1,6-dihydropyridin-2-yl)thio)methyl)benzoic acid]
IC50: 6750 nM

Cc1ccc(-c2cc(=O)[nH]c(SCc3cccc(C(=O)O)c3)c2C#N)cc1 [Ex. 29, 3-(((3-cyano-6-oxo-4-(p-tolyl)-1,6-dihydropyridin-2-yl)thio)methyl)benzoic acid]
IC50: 4 nM

N#Cc1c(-c2cccs2)cc(=O)[nH]c1SCc1cccc(-c2nnn[nH]2)c1 [Ex. 49, 2-((3-(1H-tetrazol-5-yl)benzyl)thio)-6-oxo-4-(thiophen-2-yl)-1,6-dihydropyridine-3-carbonitrile]
IC50: 6 nM

N#Cc1c(-c2ccccc2)cc(=O)[nH]c1SCc1cccc(-c2nnn[nH]2)c1 [Ex. 50, 2-((3-(1H-tetrazol-5-yl)benzyl)thio)-6-oxo-4-phenyl-1,6-dihydropyridine-3-carbonitrile]
IC50: 3 nM

O=c1cc(C(F)(F)F)cc(SCc2nnn[nH]2)[nH]1 [Ex. 52, 6-((1H-tetrazol-5-yl)methylthio)-4-(trifluoromethyl)pyridin-2(1H)-one]
IC50: 130 nM

Cc1cc(=O)[nH]c(SCC(=O)O)c1C#N [reference compound]
IC50: 2990 nM

N#Cc1c(SCC(=O)O)[nH]c(=O)c(F)c1C(F)(F)F [Ex. 17, 2-(3-cyano-5-fluoro-6-oxo-4-(trifluoromethyl)-1,6-dihydropyridin-2-ylthio)acetic acid]
IC50: 9 nM
